Consider 14 molecules from article PMC3408433, “Selective Cytotoxicity of Amidinopiperidine Based Compounds Towards Burkitt’s Lymphoma Cells Involves Proteasome Inhibition” (PLoS ONE, 2012).

Structures are written as SMILES. Where two headings read alike, the source gives them in different places. Bounds are passed on as bounds.

The target of one data set is α-chymotrypsin (Bos taurus, UniProt P00766). Nature of the data set: α-Chymotrypsin inhibition assay.
In data set [1] the test system is Ramos Burkitt’s lymphoma cells. Nature of the data set: Metabolic activity assay (MTS), Ramos. It is filed as cell-based, human. The settings on record: 24 h; for cytotoxicity group (Figure 3A) / viability at 100 µM: 100 µM; for viability at 100 µM: Homo sapiens, read-out: residual metabolic activity relative to untreated control. As to the method:
When investigating the potency of selected serine protease inhibitors to induce cell death in human B lymphoma cells, we identified a set of compounds cytotoxic for Burkitt’s lymphoma. Using a metabolic activity assay (MTS), we evaluated the proliferation rate of Ramos Burkitt’s lymphoma cells, in the presence of serine protease inhibitors. Cells were treated for 24 h with the compound of interest at concentrations of 100 µM (1–13, 15, 16) or 50 µM (14). After a comparison of metabolic activity relative to that in the untreated control, three groups with distinct modes of action were determined (Figure 3A). […] The second group (compounds 1–3, 5, 7 and 13) caused a moderate decrease (50% to 80%) relative to untreated cells. The last group of compounds (11, 15, 16) severely impaired the metabolic activity, such that it fell to under 6%.
(§1) Cells (1×10^5 cells/mL for Ramos, Daudi, U937 and Jurkat, and 1×10^6 cells/mL for PBMC) were treated with the appropriate amounts of compounds of interest or corresponding vehicle (control cells), then seeded in triplicate in 96 well plates. The metabolic activity was assessed using the CellTiter 96® Aqueous One Solution Cell Proliferation Assay (Promega, Madison/WI, USA), in accordance with the manufacturer’s instructions.

Another data set has as its target Trypsin. Set-up: method as in PMID 15497744, PMID 15544050, PMID 17484277. The settings on record: amidolytic assay, chromogenic substrate; determined previously; cited from earlier work.
The target in the next data set is Thrombin. Also noted: method as in PMID 15497744, PMID 15544050, PMID 17484277. The settings on record: amidolytic assay, chromogenic substrate; determined previously; cited from earlier work.
For a further data set, the target named is Factor Xa. Set-up: method as in PMID 15497744, PMID 15544050, PMID 17484277. The settings on record: amidolytic assay, chromogenic substrate; determined previously; cited from earlier work.
The test system of data set [2] is peripheral blood mononuclear cells (PBMC). Nature of the data set: Metabolic activity assay (MTS), PBMC. It counts as cell-based, human. The settings on record: 50 µM, 24 h. As for the experimental part: (§2) Compounds 11, and 14–16 were further tested for selective cytotoxicity. The experiments were conducted on freshly isolated primary peripheral blood mononuclear cells (PBMC) and three other haematological cancers: human T cell leukaemia (Jurkat), human histiocytic lymphoma (U937) and human Burkitt’s lymphoma (Daudi). An MTS assay was performed following 24 h of treatment with the compound of interest at 50 µM. […] The inhibition of proliferation in Ramos cells, mediated with compounds 15 and 16, was concentration dependent.
as §1

For data set [3], the system named is human T cell leukaemia (Jurkat). Nature of the data set: Metabolic activity assay (MTS), Jurkat. It counts as cell-based. The settings on record: 50 µM, 24 h. As to the method: as §2, §1
The next data set can be described thus: Solubility remark. It is filed as physicochemical. The settings on record: reason for testing at 50 µM.
For data set [4], the system named is human Burkitt’s lymphoma (Daudi). Nature of the data set: Metabolic activity assay (MTS), Daudi. It counts as cell-based. The settings on record: 50 µM, 24 h. As for the experimental part: as §2, §1
The test system of data set [5] is human histiocytic lymphoma (U937). Nature of the data set: Metabolic activity assay (MTS), U937. It counts as cell-based. The settings on record: U937, 50 µM, 24 h. As for the experimental part:
as §2, §1

Method for α-chymotrypsin: In short, a 1 nM solution of α-chymotrypsin was mixed with various concentrations of the substrate Suc-Ala-Ala-Pro-Phe-AMC. All the solutions were prepared in 144 mM Tris–HCl, pH 7.8. Substrate hydrolysis was monitored at 30°C on an automated Tecan Safire^2 microplate reader (Tecan, Mannedorf/Zürich, Switzerland). The initial rates of the reactions (ΔF/Δt) were measured immediately after the addition of the substrate (within 200 s) and plotted versus substrate concentration with nonlinear regression to fit a Michaelis-Menten plot. The curve fit and kinetic parameters (Km and v max) were calculated using GraphPad PRISM version 5.0 software (GraphPad Software, Inc., CA, USA). […] The initial velocities of the hydrolysis reactions were measured under the same conditions as described for the determination of Km. 50 µl of α-chymotrypsin solution was added to 50 µl of each inhibitor solution (prepared in 144 mM Tris–HCl, pH 7.8; final concentration 1 nM) and incubated at 30°C for 15 min. The reaction was initiated with the addition of 100 µl of substrate. […] The Ki values were determined as mean values of all measurements.

Turning to `CC(C)CC(NS(=O)(=O)c1ccc2ccccc2c1)C(=O)NN(Cc1ccc(C(=N)N)cc1)C(=O)N1CCCCCC1` (centres unmarked) [Compound 10], the Ki was 8.8 µM on α-chymotrypsin (read-out: Ki α-chymotrypsin, substrate Suc-Ala-Ala-Pro-Phe-AMC, pH 7.8, 30°C); more than 100 µM on Trypsin; 10 µM on Thrombin; more than 100 µM at Factor Xa. Besides, in [1], the “cytotoxicity group (Figure 3A)” value was “well tolerated (well tolerated by Ramos, since their residual metabolic activity did not fall below 80%)”. Further, the viability at 100 µM in [1] is not below 80%.
Turning to `O=C(N1CCCCC1)N(CC1CCNCC1)NS(=O)(=O)c1ccc2ccccc2c1` [Compound 13], the Ki at α-chymotrypsin was 65.9 µM; at Trypsin, more than 200 µM; on Thrombin it was 30 µM. Moreover, the “cytotoxicity group (Figure 3A)” value in data set [1] is “moderately cytotoxic (caused a moderate decrease (50% to 80%) relative to untreated cells)”. Further, in [1], the viability at 100 µM lay within 50 to 80%.
Turning to `N/C(=N\O)c1cccc(CN(NS(=O)(=O)c2ccc3ccccc3c2)C(=O)N2CCOCC2)c1` [Compound 4], the Ki on α-chymotrypsin is 41 µM; at Trypsin, 48 µM; on Thrombin it was 3.1 µM; at Factor Xa it was 60 µM. Also, in data set [1], the “cytotoxicity group (Figure 3A)” value is “well tolerated (well tolerated by Ramos, since their residual metabolic activity did not fall below 80%)”. Also, in data set [1], the viability at 100 µM was not below 80%.
Molecule `CC(=O)Nc1ccc(CN(NS(=O)(=O)c2ccc3ccccc3c2)C(=O)N2CCOCC2)cc1` [Compound 8] gave a Ki at α-chymotrypsin of 24.7 µM. In [1], the “cytotoxicity group (Figure 3A)” value is “well tolerated (well tolerated by Ramos, since their residual metabolic activity did not fall below 80%)” and the viability at 100 µM was not below 80%.
The like results for `CC1CCN(C(=O)N(Cc2ccc(C#N)cc2)NC(=O)c2ccc3ccccc3c2)CC1` [Compound 5] were, in that order, 273 µM, “moderately cytotoxic (caused a moderate decrease (50% to 80%) relative to untreated cells)” and 50 to 80%.
On α-chymotrypsin, `CC(=O)N1CCC(CN(NS(=O)(=O)c2ccc3ccccc3c2)C(=O)N2CCCCC2)CC1` [Compound 14] had a Ki of 47.7 µM. In addition, the “residual metabolic activity relative to control” value in data set [2], in [3], in data set [4] and in data set [5] was “under 40%” each time. Also, the solubility entry in “Solubility remark” is reported as “poor solubility”.
For `CC(=O)NCc1ccc(CN(NS(=O)(=O)c2ccc3ccccc3c2)C(=O)N2CCCCC2)cc1` [Compound 9], affinity at α-chymotrypsin was put at a Ki of 40.6 µM. In data set [1], the “cytotoxicity group (Figure 3A)” value is “well tolerated (well tolerated by Ramos, since their residual metabolic activity did not fall below 80%)” and the viability at 100 µM was not below 80%.
Regarding `Nc1ccc(CN(NS(=O)(=O)c2ccc3ccccc3c2)C(=O)N2CCOCC2)cc1` [Compound 7], the Ki was 4 µM at α-chymotrypsin, 5.6 µM at Trypsin, 4.5 µM on Thrombin and 62 µM on Factor Xa. In addition, in data set [1], the “cytotoxicity group (Figure 3A)” value is listed as “moderately cytotoxic (caused a moderate decrease (50% to 80%) relative to untreated cells)”. Also, in [1], the viability at 100 µM lay in the range of 50 to 80%.
As to `CC1CCN(C(=O)N(Cc2cccc(C(=N)N)c2)NC(=O)c2ccc3ccccc3c2)CC1` [Compound 6], the Ki was 17.1 µM at α-chymotrypsin, 1.8 µM at Trypsin, 6.8 µM at Thrombin and 5.7 µM at Factor Xa. For the same molecule, the “cytotoxicity group (Figure 3A)” value in data set [1] is “well tolerated (well tolerated by Ramos, since their residual metabolic activity did not fall below 80%)”. Besides, the viability at 100 µM in [1] is not below 80%.
Turning to `CC1CCN(C(=O)N(CC2CCNCC2)NS(=O)(=O)c2ccc3ccccc3c2)CC1` [Compound 11], the values for the inhibition constant (Ki) at α-chymotrypsin, at Trypsin and on Thrombin were 38.8 µM, more than 200 µM and 19 µM, respectively. Besides, the “residual metabolic activity relative to control” value in data set [2], in data set [1] (50 µM), in data set [3], in data set [4] and in data set [5] was “under 40%” in each case. The “cytotoxicity group (Figure 3A)” value in [1] is on record as “severely cytotoxic (severely impaired the metabolic activity, such that it fell to under 6%)”. In data set [1], the viability at 100 µM was less than 6%.
Take `N/C(=N\O)c1cccc(CN(NC(=O)c2ccc3ccccc3c2)C(=O)N2CCCCCC2)c1` [Compound 3]: the inhibition constant (Ki) on α-chymotrypsin is 3 µM; on Trypsin, more than 100 µM; at Thrombin, 4.8 µM; at Factor Xa, 60 µM. The “cytotoxicity group (Figure 3A)” value in [1] is recorded as “moderately cytotoxic (caused a moderate decrease (50% to 80%) relative to untreated cells)”. Also, the viability at 100 µM in data set [1] fell in the range of 50 to 80%.
For `N/C(=N/O)c1ccc(CN(NC(=O)c2ccc3ccccc3c2)C(=O)N2CCCCCC2)cc1` [Compound 1], the Ki at α-chymotrypsin was 33.5 µM; on Trypsin, 660 µM; on Thrombin it was 5.2 µM; at Factor Xa it was 78 µM. Moreover, the “cytotoxicity group (Figure 3A)” value in data set [1] was “moderately cytotoxic (caused a moderate decrease (50% to 80%) relative to untreated cells)”. In addition, the viability at 100 µM in data set [1] was in the range of 50 to 80%.
For the molecule `CC1CCN(C(=O)N(Cc2ccc(/C(N)=N\O)cc2)NC(=O)c2ccc3ccccc3c2)CC1` [Compound 2], the Ki was 259 µM at α-chymotrypsin, 200 µM at Trypsin, more than 200 µM on Thrombin and more than 200 µM on Factor Xa. Also, the “cytotoxicity group (Figure 3A)” value in data set [1] is recorded as “moderately cytotoxic (caused a moderate decrease (50% to 80%) relative to untreated cells)”. Besides, in data set [1], the viability at 100 µM was 50 to 80%.
Turning to `O=C(N1CCOCC1)N(CC1CCNCC1)NS(=O)(=O)c1ccc2ccccc2c1` [Compound 12], the Ki at α-chymotrypsin was 150 µM; at Trypsin it was more than 200 µM; on Thrombin, 53 µM. Moreover, the “cytotoxicity group (Figure 3A)” value in data set [1] is recorded as “well tolerated (well tolerated by Ramos, since their residual metabolic activity did not fall below 80%)”. Moreover, in data set [1], the viability at 100 µM is not below 80%.

One may read the Ki as a dissociation constant, usually derived from enzyme kinetics or from competition with a known ligand.
